Data as given in ChEMBL document CHEMBL1145498, “A systematic interaction map of validated kinase inhibitors with Ser/Thr kinases” (Proc Natl Acad Sci U S A, 2007).

Experiments:
[1] = biological target: Serine/threonine-protein kinase pim-2 (Homo sapiens, UniProt Q9P1W9)
[2] = biological target: Serine/threonine-protein kinase OSR1 (Homo sapiens) (UniProt O95747)
[3] = biological target: T1, Lymphokine-activated killer T-cell-originated protein kinase (Homo sapiens) (UniProt Q96KB5)
T1 sequence (whole entry): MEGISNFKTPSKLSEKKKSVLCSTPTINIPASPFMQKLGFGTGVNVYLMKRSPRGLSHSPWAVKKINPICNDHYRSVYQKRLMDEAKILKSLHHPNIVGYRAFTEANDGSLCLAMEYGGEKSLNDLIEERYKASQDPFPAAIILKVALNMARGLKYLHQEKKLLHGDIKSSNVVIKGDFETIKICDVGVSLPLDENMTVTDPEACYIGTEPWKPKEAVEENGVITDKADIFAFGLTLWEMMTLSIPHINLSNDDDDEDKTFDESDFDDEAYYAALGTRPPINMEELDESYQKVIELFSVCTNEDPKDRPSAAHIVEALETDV

[4] = biological target: STE20-like serine/threonine-protein kinase (Homo sapiens) (UniProt Q9H2G2)
[5] = biological target: Serine/threonine-protein kinase Chk2 (Homo sapiens, UniProt O96017)
[6] = biological target: Dual specificity protein kinase CLK2 (Homo sapiens) (UniProt P49760)
[7] = biological target: Casein kinase I isoform gamma-1 (Homo sapiens) (UniProt Q9HCP0)
[8] = biological target: Calcium/calmodulin-dependent protein kinase kinase 2 (Homo sapiens, UniProt Q96RR4)
[9] = biological target: cAMP-dependent protein kinase catalytic subunit alpha (Homo sapiens) (UniProt P17612)
[10] = biological target: Mitogen-activated protein kinase 3 (Homo sapiens, UniProt P27361)
[11] = biological target: Dual specificity protein kinase CLK3 (Homo sapiens) (UniProt P49761)
[12] = biological target: Cyclin-dependent kinase 6 (Homo sapiens) (UniProt Q00534)
[13] = biological target: Ribosomal protein S6 kinase alpha-3 (Homo sapiens) (UniProt P51812)
[14] = biological target: T2, Serine/threonine-protein kinase PLK4 (Homo sapiens) (UniProt O00444)
T2 sequence (whole entry): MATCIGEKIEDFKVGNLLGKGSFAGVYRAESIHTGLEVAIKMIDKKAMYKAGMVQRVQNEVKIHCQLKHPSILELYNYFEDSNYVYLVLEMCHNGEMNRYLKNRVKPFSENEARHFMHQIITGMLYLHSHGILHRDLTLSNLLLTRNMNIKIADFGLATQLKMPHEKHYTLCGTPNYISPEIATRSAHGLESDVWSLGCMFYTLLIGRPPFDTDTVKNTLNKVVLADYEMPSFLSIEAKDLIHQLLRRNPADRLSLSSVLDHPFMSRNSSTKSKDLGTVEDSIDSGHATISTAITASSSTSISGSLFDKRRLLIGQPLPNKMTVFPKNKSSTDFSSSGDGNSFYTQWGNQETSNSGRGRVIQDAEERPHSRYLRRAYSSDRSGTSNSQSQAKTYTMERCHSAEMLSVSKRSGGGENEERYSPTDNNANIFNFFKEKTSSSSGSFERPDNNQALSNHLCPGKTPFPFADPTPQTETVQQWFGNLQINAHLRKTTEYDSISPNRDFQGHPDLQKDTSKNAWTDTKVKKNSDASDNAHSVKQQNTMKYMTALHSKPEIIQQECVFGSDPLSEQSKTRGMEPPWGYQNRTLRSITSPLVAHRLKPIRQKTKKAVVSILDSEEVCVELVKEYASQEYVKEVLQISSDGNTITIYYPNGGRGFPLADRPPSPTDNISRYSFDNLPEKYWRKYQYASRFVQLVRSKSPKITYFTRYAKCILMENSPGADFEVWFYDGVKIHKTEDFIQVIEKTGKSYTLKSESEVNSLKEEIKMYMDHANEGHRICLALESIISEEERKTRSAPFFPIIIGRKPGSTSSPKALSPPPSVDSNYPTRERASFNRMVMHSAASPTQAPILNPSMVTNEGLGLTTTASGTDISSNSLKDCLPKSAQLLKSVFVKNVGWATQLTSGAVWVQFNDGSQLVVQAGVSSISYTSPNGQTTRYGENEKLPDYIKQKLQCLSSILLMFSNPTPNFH

[15] = biological target: T3, Serine/threonine-protein kinase VRK3 (Homo sapiens) (UniProt Q8IV63)
T3 sequence (whole entry): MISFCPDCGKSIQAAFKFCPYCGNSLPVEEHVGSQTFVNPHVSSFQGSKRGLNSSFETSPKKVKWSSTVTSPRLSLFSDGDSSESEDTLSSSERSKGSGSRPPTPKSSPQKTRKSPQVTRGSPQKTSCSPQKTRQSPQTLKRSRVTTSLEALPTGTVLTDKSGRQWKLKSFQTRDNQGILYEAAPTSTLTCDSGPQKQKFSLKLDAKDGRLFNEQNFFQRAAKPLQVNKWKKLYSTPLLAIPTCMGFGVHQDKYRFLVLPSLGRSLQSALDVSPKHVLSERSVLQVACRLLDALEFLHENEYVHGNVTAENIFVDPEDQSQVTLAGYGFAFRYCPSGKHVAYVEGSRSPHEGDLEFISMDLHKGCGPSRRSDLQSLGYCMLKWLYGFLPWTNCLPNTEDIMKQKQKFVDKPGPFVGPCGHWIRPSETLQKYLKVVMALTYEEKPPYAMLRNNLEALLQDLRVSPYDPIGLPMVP

[16] = biological target: Death-associated protein kinase 3 (Homo sapiens) (UniProt O43293)
[17] = biological target: Calcium/calmodulin-dependent protein kinase type 1G (Homo sapiens) (UniProt Q96NX5)
[18] = biological target: Serine/threonine-protein kinase Nek6 (Homo sapiens) (UniProt Q9HC98)
[19] = biological target: Mitogen-activated protein kinase 11 (Homo sapiens, UniProt Q15759)
[20] = biological target: Tyrosine-protein kinase JAK1 (Homo sapiens) (UniProt P23458)
[21] = biological target: Serine/threonine-protein kinase pim-3 (Homo sapiens) (UniProt Q86V86)

Chain of Death-associated protein kinase 3 (Homo sapiens) (O43293 whole entry, looked up): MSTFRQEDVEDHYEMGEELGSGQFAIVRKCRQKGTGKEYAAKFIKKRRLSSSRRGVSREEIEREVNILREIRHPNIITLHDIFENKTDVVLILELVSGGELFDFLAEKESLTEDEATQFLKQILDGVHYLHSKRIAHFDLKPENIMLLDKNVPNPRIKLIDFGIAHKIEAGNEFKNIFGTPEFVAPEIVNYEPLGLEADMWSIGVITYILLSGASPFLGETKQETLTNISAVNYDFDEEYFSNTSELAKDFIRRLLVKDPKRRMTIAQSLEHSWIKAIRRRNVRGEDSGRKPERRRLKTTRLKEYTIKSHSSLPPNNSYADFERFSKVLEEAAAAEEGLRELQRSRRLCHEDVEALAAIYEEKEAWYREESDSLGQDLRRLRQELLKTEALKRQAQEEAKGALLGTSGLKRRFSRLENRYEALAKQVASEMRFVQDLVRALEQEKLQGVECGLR
Chain of Calcium/calmodulin-dependent protein kinase kinase 2 (Q96RR4 2-588 limits assumed): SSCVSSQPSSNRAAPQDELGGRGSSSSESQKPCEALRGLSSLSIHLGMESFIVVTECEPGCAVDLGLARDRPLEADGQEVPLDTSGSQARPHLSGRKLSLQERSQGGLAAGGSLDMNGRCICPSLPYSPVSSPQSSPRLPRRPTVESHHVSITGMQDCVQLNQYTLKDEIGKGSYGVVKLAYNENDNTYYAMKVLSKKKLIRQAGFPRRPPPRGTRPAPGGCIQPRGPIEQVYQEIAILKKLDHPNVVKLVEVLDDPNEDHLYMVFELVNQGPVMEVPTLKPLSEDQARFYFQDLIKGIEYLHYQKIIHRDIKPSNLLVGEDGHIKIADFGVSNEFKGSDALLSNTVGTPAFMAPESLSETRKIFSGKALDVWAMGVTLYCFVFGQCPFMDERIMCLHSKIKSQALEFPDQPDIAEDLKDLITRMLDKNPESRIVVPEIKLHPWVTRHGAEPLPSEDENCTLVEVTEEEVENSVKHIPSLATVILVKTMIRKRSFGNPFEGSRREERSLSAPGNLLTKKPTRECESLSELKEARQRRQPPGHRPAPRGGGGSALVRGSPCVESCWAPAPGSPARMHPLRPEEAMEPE
Chain of STE20-like serine/threonine-protein kinase (Homo sapiens) (Q9H2G2 whole entry, looked up): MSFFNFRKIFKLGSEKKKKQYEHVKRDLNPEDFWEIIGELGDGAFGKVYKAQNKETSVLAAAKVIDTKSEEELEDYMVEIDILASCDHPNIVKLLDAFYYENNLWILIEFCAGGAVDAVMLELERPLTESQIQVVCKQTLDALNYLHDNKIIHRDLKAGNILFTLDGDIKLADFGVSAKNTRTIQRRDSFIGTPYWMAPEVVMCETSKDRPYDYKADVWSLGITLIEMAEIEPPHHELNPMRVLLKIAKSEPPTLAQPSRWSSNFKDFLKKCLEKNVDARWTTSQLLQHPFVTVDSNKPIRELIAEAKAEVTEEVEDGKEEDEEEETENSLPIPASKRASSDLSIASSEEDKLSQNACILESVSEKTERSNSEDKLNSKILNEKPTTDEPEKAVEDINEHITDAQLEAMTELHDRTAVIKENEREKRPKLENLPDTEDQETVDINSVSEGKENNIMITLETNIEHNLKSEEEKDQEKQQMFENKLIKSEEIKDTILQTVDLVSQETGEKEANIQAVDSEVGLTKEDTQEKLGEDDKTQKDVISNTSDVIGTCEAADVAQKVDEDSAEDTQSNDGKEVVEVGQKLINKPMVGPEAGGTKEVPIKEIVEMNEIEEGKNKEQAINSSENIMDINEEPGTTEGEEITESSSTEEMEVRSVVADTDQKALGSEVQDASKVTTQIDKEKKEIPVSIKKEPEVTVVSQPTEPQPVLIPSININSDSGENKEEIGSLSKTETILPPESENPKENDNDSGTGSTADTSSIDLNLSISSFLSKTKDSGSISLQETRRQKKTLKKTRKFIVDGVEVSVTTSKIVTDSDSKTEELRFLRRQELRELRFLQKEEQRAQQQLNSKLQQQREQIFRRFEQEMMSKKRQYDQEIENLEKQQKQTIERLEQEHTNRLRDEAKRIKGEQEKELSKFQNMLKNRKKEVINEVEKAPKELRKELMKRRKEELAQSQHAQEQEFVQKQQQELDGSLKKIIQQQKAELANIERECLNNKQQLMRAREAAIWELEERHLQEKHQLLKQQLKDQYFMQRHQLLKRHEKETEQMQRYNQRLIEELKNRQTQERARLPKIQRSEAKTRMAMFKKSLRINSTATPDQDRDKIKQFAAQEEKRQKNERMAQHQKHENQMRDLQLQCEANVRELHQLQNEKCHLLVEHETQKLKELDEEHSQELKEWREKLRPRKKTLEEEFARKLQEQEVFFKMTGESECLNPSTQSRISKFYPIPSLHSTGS
Chain of Dual specificity protein kinase CLK3 (Homo sapiens) (P49761 whole entry, looked up): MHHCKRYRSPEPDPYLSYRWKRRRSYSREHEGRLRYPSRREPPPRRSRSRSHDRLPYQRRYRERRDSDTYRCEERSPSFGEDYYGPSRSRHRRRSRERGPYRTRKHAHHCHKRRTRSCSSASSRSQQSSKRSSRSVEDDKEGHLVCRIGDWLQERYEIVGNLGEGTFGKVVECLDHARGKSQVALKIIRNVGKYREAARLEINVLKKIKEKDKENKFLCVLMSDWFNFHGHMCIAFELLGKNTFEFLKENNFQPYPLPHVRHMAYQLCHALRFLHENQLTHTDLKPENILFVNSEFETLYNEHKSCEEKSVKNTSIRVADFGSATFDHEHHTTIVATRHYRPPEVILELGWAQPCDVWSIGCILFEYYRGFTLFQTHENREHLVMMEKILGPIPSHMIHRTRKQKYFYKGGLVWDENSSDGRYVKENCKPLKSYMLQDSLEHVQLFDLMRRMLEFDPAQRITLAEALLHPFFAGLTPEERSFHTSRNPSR
Chain of Calcium/calmodulin-dependent protein kinase type 1G (Homo sapiens) (Q96NX5 whole entry): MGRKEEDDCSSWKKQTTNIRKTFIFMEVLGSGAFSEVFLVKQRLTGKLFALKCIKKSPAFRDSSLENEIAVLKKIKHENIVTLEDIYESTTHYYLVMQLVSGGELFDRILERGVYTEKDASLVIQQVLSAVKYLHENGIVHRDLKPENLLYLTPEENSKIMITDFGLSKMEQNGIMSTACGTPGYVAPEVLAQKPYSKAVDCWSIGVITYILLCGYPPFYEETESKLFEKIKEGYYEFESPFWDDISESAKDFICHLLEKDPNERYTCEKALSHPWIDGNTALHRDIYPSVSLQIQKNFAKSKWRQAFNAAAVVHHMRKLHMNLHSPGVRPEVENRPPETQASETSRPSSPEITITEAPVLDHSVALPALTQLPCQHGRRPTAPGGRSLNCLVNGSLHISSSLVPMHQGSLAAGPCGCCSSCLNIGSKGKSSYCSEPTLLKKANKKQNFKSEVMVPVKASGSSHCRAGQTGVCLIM
Chain of Dual specificity protein kinase CLK2 (Homo sapiens) (P49760 whole entry, looked up, canonical isoform): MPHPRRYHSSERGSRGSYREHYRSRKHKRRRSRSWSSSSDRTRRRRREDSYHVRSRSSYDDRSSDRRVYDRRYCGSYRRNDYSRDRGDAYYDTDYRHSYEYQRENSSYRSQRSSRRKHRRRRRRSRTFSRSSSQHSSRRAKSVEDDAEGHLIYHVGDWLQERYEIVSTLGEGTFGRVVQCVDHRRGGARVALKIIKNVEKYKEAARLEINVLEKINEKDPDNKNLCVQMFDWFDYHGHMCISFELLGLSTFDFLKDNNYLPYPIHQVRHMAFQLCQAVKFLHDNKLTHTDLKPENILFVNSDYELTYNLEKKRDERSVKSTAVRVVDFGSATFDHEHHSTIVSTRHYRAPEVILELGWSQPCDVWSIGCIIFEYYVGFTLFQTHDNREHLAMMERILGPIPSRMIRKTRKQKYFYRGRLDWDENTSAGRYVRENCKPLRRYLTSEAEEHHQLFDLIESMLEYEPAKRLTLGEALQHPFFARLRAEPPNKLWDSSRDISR
Chain of Serine/threonine-protein kinase OSR1 (Homo sapiens) (O95747 2-527 limits assumed): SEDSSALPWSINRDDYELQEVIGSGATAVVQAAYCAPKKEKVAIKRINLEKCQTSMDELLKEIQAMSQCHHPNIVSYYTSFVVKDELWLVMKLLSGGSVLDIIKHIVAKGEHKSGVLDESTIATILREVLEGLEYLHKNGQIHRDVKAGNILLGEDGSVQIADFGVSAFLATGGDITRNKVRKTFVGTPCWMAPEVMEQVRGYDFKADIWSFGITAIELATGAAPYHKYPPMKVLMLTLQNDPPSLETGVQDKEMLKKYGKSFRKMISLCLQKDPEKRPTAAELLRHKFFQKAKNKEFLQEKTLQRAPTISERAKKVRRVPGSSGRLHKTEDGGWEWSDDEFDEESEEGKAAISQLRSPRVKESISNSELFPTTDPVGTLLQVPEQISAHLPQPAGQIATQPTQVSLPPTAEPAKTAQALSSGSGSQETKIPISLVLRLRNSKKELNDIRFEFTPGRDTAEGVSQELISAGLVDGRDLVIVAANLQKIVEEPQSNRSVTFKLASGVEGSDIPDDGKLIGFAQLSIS
Chain of Casein kinase I isoform gamma-1 (Homo sapiens) (Q9HCP0 whole entry, looked up, canonical isoform): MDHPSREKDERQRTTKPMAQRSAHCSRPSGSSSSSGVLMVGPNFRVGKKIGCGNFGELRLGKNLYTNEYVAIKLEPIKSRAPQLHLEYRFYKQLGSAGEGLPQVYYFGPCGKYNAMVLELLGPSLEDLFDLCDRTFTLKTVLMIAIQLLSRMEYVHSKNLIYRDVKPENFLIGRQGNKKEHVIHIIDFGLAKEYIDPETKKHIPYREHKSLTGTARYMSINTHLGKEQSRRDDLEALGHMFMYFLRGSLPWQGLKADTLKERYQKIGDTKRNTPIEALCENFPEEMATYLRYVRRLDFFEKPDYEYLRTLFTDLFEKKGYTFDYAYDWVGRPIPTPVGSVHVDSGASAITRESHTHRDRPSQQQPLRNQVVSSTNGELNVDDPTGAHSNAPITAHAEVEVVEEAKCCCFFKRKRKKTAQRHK

Row | SMILES | ΔTm [1] [°C] | ΔTm [2] [°C] | ΔTm [3] [°C] | ΔTm [4] [°C] | ΔTm [5] [°C] | ΔTm [6] [°C] | ΔTm [7] [°C] | ΔTm [8] [°C] | ΔTm [9] [°C] | ΔTm [10] [°C] | ΔTm [11] [°C] | ΔTm [12] [°C] | ΔTm [13] [°C] | ΔTm [14] [°C] | ΔTm [15] [°C] | ΔTm [16] [°C] | ΔTm [17] [°C] | ΔTm [18] [°C] | ΔTm [19] [°C] | ΔTm [20] [°C] | also measured
1 | COc1cc(C[C@H]2C(=O)OC[C@@H]2Cc2ccc(OC)c(OC)c2)ccc1O [ARCTIGENIN] | 0 | -0.1 | -0.7 | -0.5 | -0.3 | -0.1 | 0 | -0.9 | 0.2 | -0.4 | 0 | 0.4 | -0.1 | 0 | 0.4 | -0.3 | -0.3 | -0.7 | -0.2 | -0.1 | ΔTm [21]: 0.6 °C
2 | O=C1c2ccccc2-[n+]2ccc3c([nH]c4ccccc43)c21 [FASCAPLYSIN CHLORIDE] | -2.4 | -1.5 | 0.6 | -0.9 | 4.9 | -0.4 | -0.6 | -2.1 | 0.6 | 0.3 | -0.9 | 0.2 | 0.7 | -0.1 | -0.4 | -0.5 | -3.5 | -0.1 | -1.3 | -1.5 | ΔTm [21]: 0 °C
3 | O=c1cc(N2CCOCC2)oc2c1ccc1ccccc12 | 1 | 0.5 | 0.7 | 0.2 | -0.3 | 0.8 | 0.4 | -0.3 | 0.2 | 0.2 | 0.1 | 0.2 | 0.3 | 0.2 | 1 | 1.8 | 0.1 | -0.2 | 1.1 | 0.8 | ΔTm [21]: 2 °C
4 | COc1cc(/C=C/C(=O)CC(=O)/C=C/c2ccc(O)c(OC)c2)ccc1O [CURCUMIN] | 2.9 | 3.7 | 0.7 | 3.2 | 5.4 | 2.6 | 4.5 | 6.1 | 3.4 | 0.8 | 3.6 | 2.1 | 3 | 3.3 | 1.3 | 1.8 | 1.3 | 0.9 | 3.7 | 4.1 | ΔTm [21]: 6.9 °C
5 | CC(=O)O/N=C1/C(=C2/C(=O)Nc3cc(Br)ccc32)Nc2ccccc21 [6-BROMOINDIRUBIN-3'-ACETOXIME] | -1.4 | -1.1 | -0.3 | 2.1 | 0.1 | 2.3 | 0.6 | -1.7 | 3 | 0 | -0.4 | 2.8 | 4.5 | 6.7 | 0.7 | -1.3 | -0.6 | 0.7 | 1.1 | 2.5 | ΔTm [21]: 1.1 °C
